Measurements published in patent US8324383B2, “Methods of making polymorphs of benzoate salt of 2-[[6-[(3R)-3-amino-1-piperidinyl]-3,4-dihydro-3-methyl-2,4-dioxo-1(2H)-pyrimidinyl]methyl]-benzonitrile” (Takeda Pharmaceutical Company Limited, priority 2006, dated 2012).
“Also recorded” adds a separate entry of the source. Structures can show the parent of a compound that is named as a salt. Where two headings read alike, the source gives them in different places.

What was measured:
Assay type in all cases: physicochemical
[1] = Stress studies (relative humidity / temperature), solid form by XRPD; details: for Result (solid form by XRPD after stress): glassy material
Description: Vapor Stress (VS) Experiments: Form A was dispensed into a small vial, which was placed, uncapped, in a larger vial containing a diffusing solvent. The larger vial was sealed and stored at ambient temperature. Samples were also stressed in ovens at elevated temperatures and under different relative humidity conditions.
X-ray powder diffraction analyses were performed using a Shimadzu XRD-6000 X-ray powder diffractometer using Cu Kα radiation. The instrument is equipped with a long fine focus X-ray tube. The tube voltage and amperage were set to 40 kV and 40 mA, respectively. The divergence and scattering slits were set at 1° and the receiving slit was set at 0.15 mm. Diffracted radiation was detected by a NaI scintillation detector. A θ-2θ continuous scan at 3°/min (0.4 sec/0.02° step) from 2.5 to 40 °2θ was used. A silicon standard was analyzed to check the instrument alignment. Data were collected and analyzed using XRD-6000 v. 4.1. Samples were prepared for analysis by placing them in an aluminum holder with silicon insert.

[2] = Thermal analysis (DSC, TGA, melting point) - thermal stability; details: solid phase
Description: Differential scanning calorimetry was performed using a TA Instruments differential scanning calorimeter 2920. The sample was placed into an aluminum DSC pan, and the weight accurately recorded. The pan was covered with a lid and then crimped. The sample cell was equilibrated at ambient temperature and heated under a nitrogen purge at a rate of 10° C./min, up to a final temperature of 350° C. Indium metal was used as the calibration standard. Reported temperatures are at the transition maxima.
Thermogravimetric analyses were performed using a TA Instruments 2950 thermogravimetric analyzer. Each sample was placed in an aluminum sample pan and inserted into the TG furnace. The furnace was first equilibrated at ambient temperature, then heated under nitrogen at a rate of 10° C./min, up to a final temperature of 350° C. Nickel and Alumel™ were used as the calibration standards.
Hot stage microscopy was performed using a Linkam hot stage mounted on a Leica DM LP microscope. Samples were observed using a 20× objective with a lambda plate with crossed polarizers. Samples were sandwiched between two coverslips and visually observed as the stage was heated. Images were captured using a SPOT Insight™ color digital camera with SPOT Software v. 3.5.8. The hot stage was calibrated using sulfapyridine and vanillin USP melting point standards.

[3] = Solubility estimates in test solvents (aliquot addition, visual inspection); details: room temperature, approximate
Description: A weighed sample of Compound I was treated with aliquots of the test solvent at room temperature. The mixture was sonicated between aliquot additions to facilitate dissolution. Complete dissolution of the test material was determined by visual inspection. Solubilities were estimated from these experiments based on the total solvent used to provide complete dissolution. The actual solubility may be greater than those calculated because of the use of solvent aliquots that were too large or due to a slow rate of dissolution. […] If complete dissolution was achieved as a result of only one aliquot addition, the solubility is expressed as “greater than.”

[4] = Moisture sorption/desorption analysis (VTI SGA-100); details: for moisture sorption behaviour in words: moisture sorption/desorption analysis; for solid form of the sample after moisture sorption/desorption (XRPD): post moisture sorption/desorption sample
Description: Moisture sorption/desorption data were collected on a VTI SGA-100 Vapor Sorption Analyzer. Sorption and desorption data were collected over a range of 5% to 95% relative humidity (RH) at 10% RH intervals under a nitrogen purge. Samples were not dried prior to analysis. Equilibrium criteria used for analysis were less than 0.0100% weight change in 5 minutes, with a maximum equilibration time of 3 hours if the weight criterion was not met. Data were not corrected for the initial moisture content of the samples. NaCl and PVP were used as calibration standards.

Cn1c(=O)cc(N2CCC[C@@H](N)C2)n(Cc2ccccc2C#N)c1=O.O=C(O)c1ccccc1 [Compound 1924-83-05]
Result (solid form by XRPD after stress) ([1]; stress 40° C., 9 days): form A

Cn1c(=O)cc(N2CCC[C@@H](N)C2)n(Cc2ccccc2C#N)c1=O.O=C(O)c1ccccc1 [Compound 1924-83-06]
Result (solid form by XRPD after stress) ([1]; stress 79% RH/40° C., 9 days): form A

Cn1c(=O)cc(N2CCC[C@@H](N)C2)n(Cc2ccccc2C#N)c1=O.O=C(O)c1ccccc1 [Compound 1966-27-01]
Result (solid form by XRPD after stress) ([1]; stress 79% RH/60° C., 1 hr): form A

Cn1c(=O)cc(N2CCC[C@@H](N)C2)n(Cc2ccccc2C#N)c1=O.O=C(O)c1ccccc1 [Compound 1966-27-02]
Result (solid form by XRPD after stress) ([1]; stress 79% RH/60° C., 3 hrs): form A

Cn1c(=O)cc(N2CCC[C@@H](N)C2)n(Cc2ccccc2C#N)c1=O [Form A, benzoate salt of 2-[[6-[(3R)-3-amino-1-piperidinyl]-3,4-dihydro-3-methyl-2,4-dioxo-1(2H)-pyrimidinyl]methyl]-benzonitrile]
thermally stable (temperature) [2]: above 172 °C
solubility ([3]; ethanol, organic solvent or mixture, thermodynamic from solid, solvent EtOH, read-out: Solubility): < 3000 µg/mL
solubility ([3]; methanol, organic solvent or mixture, thermodynamic from solid, solvent MeOH, read-out: Solubility): 13000 µg/mL
solubility ([3]; organic solvent or mixture, thermodynamic from solid, solvent CAN, read-out: Solubility): < 1000 µg/mL
solubility ([3]; organic solvent or mixture, thermodynamic from solid, solvent CH2Cl2, read-out: Solubility): < 3000 µg/mL
solubility ([3]; organic solvent or mixture, thermodynamic from solid, solvent DMF, read-out: Solubility): 6000 µg/mL
solubility ([3]; organic solvent or mixture, thermodynamic from solid, solvent EtOAc, read-out: Solubility): < 3000 µg/mL
solubility ([3]; organic solvent or mixture, thermodynamic from solid, solvent IPA, read-out: Solubility): < 1000 µg/mL
solubility ([3]; organic solvent or mixture, thermodynamic from solid, solvent MEK, read-out: Solubility): 3000 µg/mL
solubility ([3]; organic solvent or mixture, thermodynamic from solid, solvent MIBK, read-out: Solubility): < 3000 µg/mL
solubility ([3]; organic solvent or mixture, thermodynamic from solid, solvent THF, read-out: Solubility): < 1000 µg/mL
solubility ([3]; organic solvent or mixture, thermodynamic from solid, solvent acetone, read-out: Solubility): < 3000 µg/mL
solubility ([3]; organic solvent or mixture, thermodynamic from solid, solvent dioxane, read-out: Solubility): < 1000 µg/mL
solubility ([3]; solvent CH2Cl2, listed as Compound I Form A): <3000 µg/mL
solubility ([3]; solvent EtOAc, listed as Compound I Form A): <3000 µg/mL
solubility ([3]; solvent EtOH, listed as Compound I Form A): <3000 µg/mL
solubility ([3]; solvent MIBK, listed as Compound I Form A): <3000 µg/mL
solubility ([3]; solvent acetone, listed as Compound I Form A): <3000 µg/mL
solubility ([3]; thermodynamic from solid, solvent water, read-out: Solubility): 8000 µg/mL
phase change upon RH stress (XRPD) ([1]; various RH conditions at room temperature, several weeks): none of these samples had undergone a phase change
Weight chg (%) ([4]; RH 5.18%, 25.20 °C, 14.1 min): 0.002%
weight loss ([4]; between 9% and 95% RH): about 0.05%
Weight chg (%) ([4]; desorption, RH 4.82%, 25.20 °C, 163.7 min): −0.004%
Weight chg (%) ([4]; desorption, RH 14.97%, 25.21 °C, 153.7 min): 0.032%
Weight chg (%) ([4]; desorption, RH 24.96%, 25.22 °C, 146.7 min): 0.035%
Weight chg (%) ([4]; desorption, RH 34.97%, 25.21 °C, 139.7 min): 0.008%
Weight chg (%) ([4]; desorption, RH 45.01%, 25.22 °C, 131.7 min): 0.012%
Weight chg (%) ([4]; desorption, RH 55.13%, 25.21 °C, 123.7 min): 0.014%
Weight chg (%) ([4]; desorption, RH 65.04%, 25.21 °C, 114.7 min): 0.016%
Weight chg (%) ([4]; desorption, RH 75.06%, 25.21 °C, 105.7 min): 0.017%
Weight chg (%) ([4]; desorption, RH 85.20%, 25.21 °C, 97.0 min): 0.019%
initial weight gain ([4]; from ambient conditions to 55% RH): approximately 0.035%
moisture sorption behaviour in words [4]: variable hydrate
solid form of the sample after moisture sorption/desorption (XRPD) [4]: form A
Weight chg (%) ([4]; sorption, RH 14.96%, 25.22 °C, 21.1 min): 0.001%
Weight chg (%) ([4]; sorption, RH 24.97%, 25.20 °C, 28.2 min): 0.001%
Weight chg (%) ([4]; sorption, RH 35.05%, 25.20 °C, 35.2 min): 0.002%
Weight chg (%) ([4]; sorption, RH 44.89%, 25.20 °C, 42.2 min): 0.004%
Weight chg (%) ([4]; sorption, RH 54.85%, 25.19 °C, 51.2 min): 0.035%
Weight chg (%) ([4]; sorption, RH 64.93%, 25.21 °C, 60.2 min): 0.039%
Weight chg (%) ([4]; sorption, RH 74.86%, 25.20 °C, 69.2 min): 0.041%
Weight chg (%) ([4]; sorption, RH 84.87%, 25.21 °C, 78.2 min): 0.045%
Weight chg (%) ([4]; sorption, RH 94.56%, 25.21 °C, 87.2 min): 0.049%
Weight chg (%) ([4]; start, RH 9.14%, 25.20 °C, 0.1 min): 0.000%

Cn1c(=O)cc(N2CCC[C@@H](N)C2)n(Cc2ccccc2C#N)c1=O [amorphous Form 1, benzoate salt of 2-[[6-[(3R)-3-amino-1-piperidinyl]-3,4-dihydro-3-methyl-2,4-dioxo-1(2H)-pyrimidinyl]methyl]-benzonitrile]
Weight chg (%) ([4]; Sample RH 5.25, 25.00 °C, 151.0 min): −0.953%
weight gain ([4]; between 5% and 95% RH): about 6.5%
weight loss ([4]; between 85% and 95% RH): about 5%
Weight chg (%) ([4]; desorption, Sample RH 5.06, 24.99 °C, 2238.3 min): −2.007%
Weight chg (%) ([4]; desorption, Sample RH 15.16, 24.99 °C, 2221.4 min): −1.980%
Weight chg (%) ([4]; desorption, Sample RH 24.87, 24.99 °C, 2199.9 min): −1.946%
Weight chg (%) ([4]; desorption, Sample RH 34.87, 24.99 °C, 2081.7 min): −1.737%
Weight chg (%) ([4]; desorption, Sample RH 45.08, 25.01 °C, 1894.1 min): −1.208%
Weight chg (%) ([4]; desorption, Sample RH 55.16, 25.00 °C, 1706.6 min): −0.421%
Weight chg (%) ([4]; desorption, Sample RH 65.12, 24.98 °C, 1517.0 min): 0.655%
Weight chg (%) ([4]; desorption, Sample RH 75.25, 24.98 °C, 1327.5 min): 1.908%
Weight chg (%) ([4]; desorption, Sample RH 85.49, 24.98 °C, 1139.9 min): 3.348%
initial weight loss ([4]; from ambient conditions to 5% RH): approximately 1%
moisture sorption behaviour in words [4]: very hygroscopic
solid form of the sample after moisture sorption/desorption (XRPD) [4]: matched form A; also recorded: tentatively identified as containing form A
Weight chg (%) ([4]; sorption, Sample RH 14.81, 25.00 °C, 197.3 min): −0.456%
Weight chg (%) ([4]; sorption, Sample RH 24.80, 24.99 °C, 253.1 min): 0.025%
Weight chg (%) ([4]; sorption, Sample RH 34.93, 24.98 °C, 329.5 min): 0.569%
Weight chg (%) ([4]; sorption, Sample RH 44.84, 24.99 °C, 508.3 min): 1.669%
Weight chg (%) ([4]; sorption, Sample RH 54.90, 24.98 °C, 603.1 min): 3.680%
Weight chg (%) ([4]; sorption, Sample RH 64.85, 24.97 °C, 655.1 min): 5.782%
Weight chg (%) ([4]; sorption, Sample RH 74.54, 24.98 °C, 723.7 min): 8.432%
Weight chg (%) ([4]; sorption, Sample RH 84.54, 24.98 °C, 764.6 min): 10.125%
Weight chg (%) ([4]; sorption, Sample RH 94.62, 24.95 °C, 952.3 min): 5.474%
Weight chg (%) ([4]; start, Sample RH 53.89, 24.98 °C, 0.1 min): 0.000%
weight gain ([4]; under 85% RH): 10%
